Where “and” joins values, the source holds several entries; their conditions need not be identical. Identical values can stand only once.
Tested on: G-401 tumor spheroids, viability % test/control
Test: Anticancer human tumor G-401 cell line growth inhibition;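 further: spheroids exposed to compound for 7 days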;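 on viability, T/C: 100% = DMSO vehicle-treated spheroids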
Conditions: spheroids with HUVEC and MSC; for viability, T/C: stronger effect = lower value; active means viability on the fitted dose curve at most 10% of control; inactive means the rest
In short: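 Single agents and combinations were tested on spheroids built from tumor cells plus HUVEC and hMSC, at half-log dilutions starting at or near clinical Cmax, else 10 microM; final DMSO 0.25% (v/v).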

[1] = curve of first compound, second compound 0.003 µM
[2] = curve of first compound, second compound 0.00949 µM
[3] = curve of first compound, second compound 0.03 µM
[4] = curve of first compound, second compound 0.0949 µM
[5] = curve of first compound, second compound 0.3 µM
[6] = second compound 0.003 µM, first compound 0.0949 µM
[7] = second compound 0.003 µM, first compound 0.3 µM
[8] = second compound 0.003 µM, first compound 0.949 µM
[9] = second compound 0.003 µM, first compound 3 µM
[10] = second compound 0.00949 µM, first compound 0.0949 µM
[11] = second compound 0.00949 µM, first compound 0.3 µM
[12] = second compound 0.00949 µM, first compound 0.949 µM
[13] = second compound 0.00949 µM, first compound 3 µM
[14] = second compound 0.03 µM, first compound 0.0949 µM
[15] = second compound 0.03 µM, first compound 0.3 µM
[16] = second compound 0.03 µM, first compound 0.949 µM
[17] = second compound 0.03 µM, first compound 3 µM
[18] = second compound 0.0949 µM, first compound 0.0949 µM
[19] = second compound 0.0949 µM, first compound 0.3 µM
[20] = second compound 0.0949 µM, first compound 0.949 µM
[21] = second compound 0.0949 µM, first compound 3 µM
[22] = second compound 0.3 µM, first compound 0.0949 µM
[23] = second compound 0.3 µM, first compound 0.3 µM
[24] = second compound 0.3 µM, first compound 0.949 µM
[25] = second compound 0.3 µM, first compound 3 µM
[26] = second compound 0.003 µM, first compound 0.00949 µM
[27] = second compound 0.003 µM, first compound 0.03 µM

O=C(c1cc(Cc2n[nH]c(=O)c3ccccc23)ccc1F)N1CCN(C(=O)C2CC2)CC1 + CC[C@@]1(O)C(=O)OCc2c1cc1n(c2=O)Cc2cc3c(CN(C)C)c(O)ccc3nc2-1
active: viability, T/C [14] 9.43% | viability, T/C [15] 10.1% | viability, T/C [16] 10.1% | viability, T/C [17] 9.87% | viability, T/C (second compound 0.03 µM, first compound 9.49 µM) 9.41% | viability, T/C (second compound 0.03 µM, first compound 30 µM) 9.05% | viability, T/C [18] 7.02% | viability, T/C [19] 6.74% | viability, T/C [20] 7.7% | viability, T/C [21] 7.1% | viability, T/C (second compound 0.0949 µM, first compound 9.49 µM) 6.71% | viability, T/C (second compound 0.0949 µM, first compound 30 µM) 7.06% | viability, T/C [22] 4.94% | viability, T/C [23] 5.39% | viability, T/C [24] 5.37% | viability, T/C [25] 6.35% | viability, T/C (second compound 0.3 µM, first compound 9.49 µM) 5.22% | viability, T/C (second compound 0.3 µM, first compound 30 µM) 6.07%
991 nM: IC50 [1]
< 94.9 nM: IC50 [2] | IC50 [3] | IC50 [4] | IC50 [5]
inactive: viability, T/C [6] 49.4% | viability, T/C [7] 51.8% | viability, T/C [8] 52.1% | viability, T/C [9] 43.9% | viability, T/C (second compound 0.003 µM, first compound 9.49 µM) 28.3% | viability, T/C (second compound 0.003 µM, first compound 30 µM) 13.6% | viability, T/C [10] 18.2% | viability, T/C [11] 19.1% | viability, T/C [12] 24% | viability, T/C [13] 18.4% | viability, T/C (second compound 0.00949 µM, first compound 9.49 µM) 17.2% | viability, T/C (second compound 0.00949 µM, first compound 30 µM) 12.4%

Cn1ncnc1[C@H]1c2n[nH]c(=O)c3cc(F)cc(c23)N[C@@H]1c1ccc(F)cc1 + CC[C@@]1(O)C(=O)OCc2c1cc1n(c2=O)Cc2cc3c(CN(C)C)c(O)ccc3nc2-1
active: viability, T/C [9] 8.75% | viability, T/C [12] 8.82% | viability, T/C [13] 7.7% | viability, T/C (second compound 0.03 µM, first compound 0.00949 µM) 8.82% | viability, T/C (second compound 0.03 µM, first compound 0.03 µM) 7.7% | viability, T/C [14] 6.78% | viability, T/C [15] 6.5% | viability, T/C [16] 6.42% | viability, T/C [17] 5.33% | viability, T/C (second compound 0.0949 µM, first compound 0.00949 µM) 6.07% | viability, T/C (second compound 0.0949 µM, first compound 0.03 µM) 5.84% | viability, T/C [18] 6.01% | viability, T/C [19] 5.6% | viability, T/C [20] 5.23% | viability, T/C [21] 3.98% | viability, T/C (second compound 0.3 µM, first compound 0.00949 µM) 4.4% | viability, T/C (second compound 0.3 µM, first compound 0.03 µM) 4.94% | viability, T/C [22] 4.58% | viability, T/C [23] 4.17% | viability, T/C [24] 3.92% | viability, T/C [25] 2.85%
< 9.49 nM: IC50 [1] | IC50 [2] | IC50 [3] | IC50 [4] | IC50 [5]
inactive: viability, T/C [26] 30.3% | viability, T/C [27] 25.3% | viability, T/C [6] 22.9% | viability, T/C [7] 14.9% | viability, T/C [8] 13.6% | viability, T/C (second compound 0.00949 µM, first compound 0.00949 µM) 14.6% | viability, T/C (second compound 0.00949 µM, first compound 0.03 µM) 14.9% | viability, T/C [10] 11.5% | viability, T/C [11] 10.4%

Cn1ncnc1[C@H]1c2n[nH]c(=O)c3cc(F)cc(c23)N[C@@H]1c1ccc(F)cc1
49 nM and 143 nM and 120 nM: IC50 (curve of compound)
inactive: viability, T/C (compound 0.00949 µM) 70.3% and 90% and 80.4% | viability, T/C (compound 0.03 µM) 54.4% and 75.6% and 67% | viability, T/C (compound 0.0949 µM) 43.7% and 56% and 56.1% | viability, T/C (compound 0.3 µM) 28.6% and 38.6% and 34.7% | viability, T/C (compound 0.949 µM) 17.3% and 23.2% and 21.1% | viability, T/C (compound 3 µM) 12.2% and 14.5% and 11.7%

Cn1ncnc1[C@H]1c2n[nH]c(=O)c3cc(F)cc(c23)N[C@@H]1c1ccc(F)cc1 + COc1cc2c(cc1O)CCNC21CSC2c3c(OC(C)=O)c(C)c4c(c3C(COC1=O)N1C(O)C3Cc5cc(C)c(OC)c(O)c5C(C21)N3C)OCO4
inactive: viability, T/C (second compound 30 pM, first compound 0.00949 µM) 70.6% | viability, T/C (second compound 30 pM, first compound 0.03 µM) 62% | viability, T/C (second compound 30 pM, first compound 0.0949 µM) 46% | viability, T/C (second compound 30 pM, first compound 0.3 µM) 30.6% | viability, T/C (second compound 30 pM, first compound 0.949 µM) 19.6% | viability, T/C (second compound 30 pM, first compound 3 µM) 10.8% | viability, T/C (second compound 94.9 pM, first compound 0.00949 µM) 48.4% | viability, T/C (second compound 94.9 pM, first compound 0.03 µM) 47.3% | viability, T/C (second compound 94.9 pM, first compound 0.0949 µM) 34.1% | viability, T/C (second compound 94.9 pM, first compound 0.3 µM) 26.2% | viability, T/C (second compound 94.9 pM, first compound 0.949 µM) 17.9% | viability, T/C (second compound 94.9 pM, first compound 3 µM) 9.94% | viability, T/C (second compound 0.0003 µM, first compound 0.00949 µM) 25.6% | viability, T/C (second compound 0.0003 µM, first compound 0.03 µM) 26.4% | viability, T/C (second compound 0.0003 µM, first compound 0.0949 µM) 21.5% | viability, T/C (second compound 0.0003 µM, first compound 0.3 µM) 19.1% | viability, T/C (second compound 0.0003 µM, first compound 0.949 µM) 11.2%
active: viability, T/C (second compound 0.0003 µM, first compound 3 µM) 7.83% | viability, T/C (second compound 0.000949 µM, first compound 0.00949 µM) 6.63% | viability, T/C (second compound 0.000949 µM, first compound 0.03 µM) 5.61% | viability, T/C (second compound 0.000949 µM, first compound 0.0949 µM) 5.35% | viability, T/C (second compound 0.000949 µM, first compound 0.3 µM) 5.74% | viability, T/C (second compound 0.000949 µM, first compound 0.949 µM) 2.94% | viability, T/C (second compound 0.000949 µM, first compound 3 µM) 0.23% | viability, T/C [26] 0.15% | viability, T/C [27] 0.13% | viability, T/C [6] 0.13% | viability, T/C [7] 0.15% | viability, T/C [8] 0.14% | viability, T/C [9] 0.21%
< 9.49 nM: IC50 (curve of first compound, second compound 94.9 pM) | IC50 (curve of first compound, second compound 0.0003 µM) | IC50 (curve of first compound, second compound 0.000949 µM) | IC50 [1]
72.5 nM: IC50 (curve of first compound, second compound 30 pM)

— PubChem BioAssay AID1845203 (Molecular Pharmacology Branch, DTP, NCI, 2023)
